In US8017631B2, “Oxadiazole derivatives and their medical use” (Neurosearch A/S, priority 2005, dated 2011):

Tests used:
[1] = target: T1, human nicotinic acetylcholine receptor subtype α4β2 (Homo sapiens, UniProt P17787+P43681); assay: Characterization of hα4β2 positive allosteric modulators using FLIPR; assay type: cell-based
T1 construct: expressed in transfected cells; host or cells: human HEK cells
Procedure: The ability is determined relative to a maximal nicotine response (normally 100 μM). The activity is determined as a standard assay using a fluorometric method in a Fluorescent Image Plate Reader (FLIPR) as described below in more detail.
Full concentration/response curves are generated and EC50 values are calculated based on peak values. EC50 values (Effective Concentration) represent the concentration of the test substance, at which the nicotine-induced EC20-30 response is positively modulated such that the size of the response equals 50% of a maximal nicotine control response. The maximal positively modulated response is determined relative to the reference (nicotine) response.

T1 sequence (P43681 29-627 limits assumed): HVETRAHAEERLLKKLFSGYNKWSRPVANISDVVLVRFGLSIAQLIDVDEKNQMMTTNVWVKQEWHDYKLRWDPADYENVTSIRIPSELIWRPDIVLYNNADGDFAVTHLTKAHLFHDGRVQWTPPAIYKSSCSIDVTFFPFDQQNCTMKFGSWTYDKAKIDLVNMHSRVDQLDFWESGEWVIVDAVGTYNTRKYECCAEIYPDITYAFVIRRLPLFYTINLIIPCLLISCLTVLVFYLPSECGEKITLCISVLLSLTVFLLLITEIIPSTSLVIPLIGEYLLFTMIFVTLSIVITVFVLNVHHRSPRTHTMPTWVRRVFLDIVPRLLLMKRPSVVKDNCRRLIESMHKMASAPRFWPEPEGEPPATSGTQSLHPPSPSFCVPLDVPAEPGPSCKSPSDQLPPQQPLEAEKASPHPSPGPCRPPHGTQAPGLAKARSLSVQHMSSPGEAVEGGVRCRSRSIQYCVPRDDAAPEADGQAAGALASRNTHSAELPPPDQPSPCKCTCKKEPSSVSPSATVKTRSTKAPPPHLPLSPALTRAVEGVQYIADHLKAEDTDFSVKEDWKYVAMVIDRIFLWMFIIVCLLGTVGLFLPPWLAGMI
T1 sequence (P17787 26-502): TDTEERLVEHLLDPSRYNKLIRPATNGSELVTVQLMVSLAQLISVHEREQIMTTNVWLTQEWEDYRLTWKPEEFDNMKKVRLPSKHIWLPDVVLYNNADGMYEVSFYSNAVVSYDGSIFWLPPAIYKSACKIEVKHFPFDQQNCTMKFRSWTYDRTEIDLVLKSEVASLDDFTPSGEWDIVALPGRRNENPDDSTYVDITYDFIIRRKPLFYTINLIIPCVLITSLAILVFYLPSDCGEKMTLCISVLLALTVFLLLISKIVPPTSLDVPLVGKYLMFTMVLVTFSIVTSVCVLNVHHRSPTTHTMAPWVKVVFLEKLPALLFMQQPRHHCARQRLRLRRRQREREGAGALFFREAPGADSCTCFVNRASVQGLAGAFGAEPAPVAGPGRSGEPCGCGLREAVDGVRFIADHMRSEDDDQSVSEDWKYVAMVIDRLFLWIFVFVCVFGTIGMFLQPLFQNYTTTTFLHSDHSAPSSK

Max. Response rel. to Nicotine ([1]; maximal positively modulated response relative to maximal nicotine response (normally 100 μM), HEK cells expressing hα4β2) [%]	EC50 ([1]; positive modulation of sub-maximal nicotine (EC20-30) response, human HEK cells expressing hα4β2, peak values) [µM]	melting point [°C]	Compound
97	6.8	–	O=[N+]([O-])c1ccc(-c2nc(-c3cccnc3)no2)o1 [Compound 1, 3-(5-(5-Nitro-furan-2-yl)-[1,2,4]oxadiazol-3-yl)-pyridine]
–	–	141 to 144	N#Cc1ccc(-c2nc(-c3cccnc3)no2)o1 [Compound 6.2, 5-(3-Pyridin-3-yl-[1,2,4]oxadiazol-5-yl)-furan-2-carbonitrile]
